Key:
[1] = test system: PD-1; assay: PD-1 expression level after tasquinimod treatment (data not shown); type: in vivo, mouse; settings: established MBT-2 tumors
[2] = test system: MBT-2 tumors; assay: Subcutaneous MBT-2 tumor growth in mice, initial combination study (Example 1); type: in vivo, mouse
Description: Six to seven-week old C3H/HeN male mice were purchased from JANVIER Labs. MBT-2, a mouse bladder cancer cell line (M. S. Soloway., Intravesical and systemic chemotherapy in the management of superficial bladder cancer, Urol. Clin. North Am. 11 (4):623-635, 1984), was provided from JCRB Cell Bank and was cultured in Eagle's minimal essential medium (Life Technologies) supplemented with 10% fetal bovine serum.
1×10^6 cells were injected subcutaneously into the flanks of mice and were allowed to grow until tumors reached a volume between 40 and 130 mm^3 (around day 10-1 1 post tumor cell inoculation).
Tumor volumes in mm^3 were assessed by caliper measurements and were calculated by the formula=(Width)^2×Length 12.
As mentioned in Table 2, the mice were treated with tasquinimod (30 mg/kg) p.o. (per os, i.e. oral administration) twice a day. For the blockade of PD-L1, 200 μg of the […] (clone 10F.9G2; Bio-XCell) was administered i.p. (intraperitoneally) to mice every 3 days. All studies were approved by the Bioethics committee of IPSEN (CE2A) and by the French Ministry of Agriculture and Fisheries' veterinary services.

[3] = test system: CD8+ T cells; assay: Ex vivo T cell proliferation assay with tumor-derived CD11b+ cells; type: cell-based, mouse; settings: CD11b+ from treated established tumors co-cultured 1:1 with T cells, 72 h; FIGS. 8A and B
Text: FIG. 7: Combination of tasquinimod with Anti-PD-L1 increases cytotoxic T cell activity. (A) Quantitative data of the percentage of tumor-infiltrating CD8+ cells on day 15 after treatment (n=6). (B) Left panel: Representative images showing immunostaining for granzyme B (brown staining) in tumors from control or treated groups. Original magnification: X200, inset: tumor overview. Scale bar: 5θ μm. Right panel: Quantification of granzyme B positive cells on tumor sections expressed as a percentage of total cells using an antibody against granzyme B (Kruskal-Wallis test; *, P=0.0326). (C) The concentration levels (pg/ml) of the following cytokines: IL-1β, IL-7, IL-1 2(p70) and IL-15 in tumor lysate from each group were quantified using Luminex Technology (n=5). (D) Splenocytes (n=5) from each group were stimulated with PMA/ionomycin in the presence of Brefeldin A. IL-2, TNF-a and IFN-γ production was examined by intracellular staining. […] Asterisks denote statistical significance using one-way ANOVA (*, P<0.05; **, P<0.005). […] P values were calculated based on Kruskal-Wallis test between the different groups (*, P<0.05; **, P<0.005). […] (A) Representative histograms obtained by FACS analysis showing the fluorescence intensity of CFSE-T cells gated on CD8+. […] (C) IFN-γ secretion in the supernatant of the co-culture is measured 72 hours following incubation at 37° C. using Luminex Technology. […]

[4] = test system: MBT-2 tumors; assay: Gene expression profiling (qRT-PCR) in MBT-2 tumors after 10 days of tasquinimod (Example 2); type: in vivo, mouse; settings: 30 mg/kg p.o. twice daily from day 10 for 10 days; FIG. 2
Description: FIG. 2: Gene expression profiling in MBT-2 tumors derived from mice treated with 30 mg/kg p.o. of tasquinimod twice daily from day 10 after tumor inoculation. Tasquinimod treatment was carried out for 10 days. Data are represented as fold change of treated tumors compared to control tumors.
Mice were treated as described in Example 1. After 10 days of treatment with tasquinimod, i.e. 20 days after tumor inoculation, RNA from tumors was isolated from 100 μηη of OCT-embedded tumor cryosections using Trizol Reagent (Life Technologies). RNA concentration and purity was determined through measurement of A260/A280 ratios with a NanoDrop ND-1000 spectrophotometer. RNA integrity was checked using the Agilent 2100 Bioanalyzer. cDNA was prepared using High-Capacity cDNA Reverse Transcription Kit (LifeTechnologies) following the manufacturer's instructions. Q-PCR was performed with a […] PCR-protocol (95° C. for 10 min, followed by 40 cycles of 95° C. for 15 sec and 60° C. for 1 min) using Taqman gene expression (LifeTechnologies). Expression levels were calculated as normalized ACt expression values between target gene and the two “housekeeping” and Hmbs and Cyclophilin A for Taqman technology. Data were presented as fold induction (2AACt) of treated tumors compared to control tumors. The probes used in the experiments are the following: […]

## COc1cccc2c1c(O)c(C(=O)N(C)c1ccc(C(F)(F)F)cc1)c(=O)n2C [tasquinimod, 4-hydroxy-5-methoxy-N,1-dimethyl-2-oxo-N-[4-(trifluoromethyl)phenyl]-1,2-dihydroquinoline-3-carboxamide]
[1]
  expression level of PD-1: not changed
[2]; day 0 post tumor cell inoculation (before treatment)
  Average of tumor volumes: 0 mm^3
[2]; day 10 post tumor cell inoculation
  Average of tumor volumes: 49 mm^3
[2]; day 11 post tumor cell inoculation
  Average of tumor volumes: 61 mm^3
[2]; day 13 post tumor cell inoculation
  Average of tumor volumes: 180 mm^3
[2]; day 14 post tumor cell inoculation
  Average of tumor volumes: 225 mm^3
[2]; day 15 post tumor cell inoculation
  Average of tumor volumes: 309 mm^3
[2]; day 17 post tumor cell inoculation
  Average of tumor volumes: 390 mm^3
[2]; tasquinimod 30 mg/kg p.o. twice a day, antibody 200 μg i.p. every 3 days, from day 10-11
  impact on tumor growth of MBT-2 tumors: slight non-significant impact
[3]
  proliferation of stimulated CD8+ T cells ex vivo: limited ability
[4]
  expression of 11-12b: increase
  expression of CD206, a M2 macrophage marker: decrease
  expression of nos2: increase
  mRNA expression of Cd274 in the tumor microenvironment: increase

From patent US20200129499A1, “COMBINATION OF TASQUINIMOD OR A PHARMACEUTICALLY ACCEPTABLE SALT THEREOF AND A PD-1 AND/OR PD-L1 INHIBITOR, FOR USE AS A MEDICAMENT” (ACTIVE BIOTECH AB, priority 2015, published 2020)
